Measurements reported in article PMC10292217, “Gene-nutrient interactions that impact magnesium homeostasis increase risk for neural tube defects in mice exposed to dolutegravir” (Frontiers in Cell and Developmental Biology, 2023).
Marks after values point to notes of the source that are not given here.

Key:
[1] = tested on: rats; conditions: 2020, cited from earlier work
[2] = tested on: C3H/HeJ mice; design: method as in Bade et al., 2021; conditions: 50 mg/kg/d DTG oral gavage from GD 0.5; 1 NTD affected pup in 17 litters; ref Bade et al., 2021; cited from earlier work
[3] = tested on: zebrafish embryos; conditions: exposure initiated at 3 h post-fertilization; ref Cabrera et al., 2019; cited from earlier work
[4] = ref Zash et al., cited from earlier work
[5] = tested on: LM/Bc mice; test: DTG-NTD susceptibility, embryo phenotyping on GD 9.5, LM/Bc dams; type: in vivo, mouse
Description: Breeding colonies and experimental mice were housed in Thoren micro-isolator cages with autoclaved corncob bedding and maintained on a 12-h light-dark cycle in climate-controlled AAALAC-accredited animal facilities at Creighton University. Mice were given ad libitum access to autoclaved water and pelleted irradiated rodent chow. For timed matings, nulliparous female mice were placed with a male overnight (1 male:2-3 females). The presence of a vaginal plug the next morning was considered GD 0.5. Plugged females were weighed, placed into a separate cage, and randomly assigned to a treatment group. All animal procedures were performed in accordance with the Public Health Service (PHS) policy on Humane Care and Use of Laboratory Animals and approved by the Creighton University Institutional Animal Care and Use Committee (IACUC).
Dolutegravir (CAS 1051375-16-6, GSK1349572) was purchased from MedKoo Biosciences (Morrisville, NC). Pregnant mice were dosed with vehicle (dimethylsulfoxide: Solutol®: 50 mM N-methylglucamine in 3% mannitol [1:1:8, v:w:v]) ([Moss et al., 2015]) or DTG (500 mg/kg or 750 mg/kg) by daily oral gavage beginning on GD 0.5 and continuing until the day of sacrifice (GD 9.5). All treatments were administered in a volume of 0.1 mL/10 g bodyweight (bwt).
The SWV and LM/Bc breeding colonies have been maintained on Envigo Rodent Chow #8904 (a soy protein-based irradiated diet) for >20 years. C3H/HeJ and C57BL/6J mice (6–10 weeks old) were immediately placed on Envigo #8904 upon arrival at Creighton University and were maintained on this diet for a minimum of 1 month prior to analysis of basal plasma and urine cations. The National Research Council (NRC) estimate for the minimum Mg^2+ requirement in adult mice is […] of diet (0.05%). Magnesium in standard rodent diets ranges between […]; the Envigo #8904 soy diet contains .3% Mg^2+ by weight ([…] the NRC requirement) and was therefore considered a ‘high’ Mg^2+ diet. Sources of Mg^2+ in the soy diet include magnesium oxide (∼20%) and Mg^2+ found naturally in grain ingredients (∼80%); it was therefore not possible to remove Mg^2+ to create a soy-based version that was Mg^2+ deficient. To test the hypothesis that low maternal plasma Mg^2+ prior to conception would increase susceptibility to DTG-induced NTDs, it was necessary to switch to casein-based purified ingredient diets with defined levels of Mg^2+ added back. The following casein-based purified ingredient diets were selected as experimental diets: TD.120,574 high Mg^2+ diet (.3% Mg^2+ oxide added to match the .3% high Mg^2+ soy-based diet); TD.98341 control Mg^2+ diet with 0.05% Mg oxide added back to match the NRC requirement; and TD.93106 Mg^2+-deficient diet (<.003%, no Mg^2+ added back). The purified casein diets met or exceeded the NRC requirements for all other minerals and vitamins, including folic acid (Supplementary Table S1: Diet Comparison). Thus, the 4 experimental diets were as follows: 1) high Mg^2+ (.3%) soy diet; 2) high Mg^2+ ([…]) casein diet; 3) control Mg^2+ (.05%) casein diet; and 4) deficient Mg^2+ (<.003%) casein diet. […] Our initial DTG teratology studies were performed in mice on the high Mg^2+ soy diet. However, our objective in the second set of experiments was to reduce pre-conception plasma Mg^2+ levels prior to DTG exposure. To accomplish this objective, weaned female mice were placed on either the high Mg^2+ casein diet or one of the 2 casein-based experimental diets with reduced Mg^2+ (control or deficient) for a minimum of 2 weeks. After this minimum period of acclimation to the experimental casein-based diets, blood and urine samples were collected for Inductively Coupled Plasma Mass Spectrometry (ICP-MS) determination of Mg^2+ (and other cations).
Pregnant dams were anesthetized with isoflurane and sacrificed by cervical dislocation on GD 9.5. […]

[6] = tested on: FOLR1; design: method as in Cabrera et al., 2019; conditions: human placental trophoblast cells; ref Cabrera et al., 2019; cited from earlier work
[7] = tested on: human embryonic stem cell (hESC) lines; design: method as in Smith et al., 2022; conditions: 2 different hESC lines; ref Smith et al., 2022; cited from earlier work
[8] = tested on: P19C5 mouse embryonal carcinoma cell; design: method as in Kirkwood-Johnson et al., 2021; conditions: exposure within the first 1-2 days; ref Kirkwood-Johnson et al., 2021; cited from earlier work
[9] = control Mg2+ (0.05%) casein diet, DTG500
[10] = control Mg2+ (0.05%) casein diet, DTG750
[11] = high Mg2+ (0.3%) casein diet, DTG750
[12] = high Mg2+ (0.3%) soy diet, DTG 750 mg/kg/d oral GD 0.5-GD 9.5, average % (SD)
[13] = high Mg2+ (0.3%) soy diet, DTG 750 mg/kg/d oral GD 0.5-GD 9.5, mean (SD)
[14] = high Mg2+ (0.3%) soy diet, DTG 750 mg/kg/d oral GD 0.5-GD 9.5, mean (SD) per litter
[15] = high Mg2+ soy diet, DTG500, n = 7 litters

Structure (SMILES): C[C@@H]1CCO[C@H]2Cn3cc(C(=O)NCc4ccc(F)cc4F)c(=O)c(O)c3C(=O)N12 [DTG, Dolutegravir]
- DTG-related maternal or developmental toxicity ([1]; oral doses up to 1000 mg/kg/d, GD 6 to GD 17, ref Stanislaus et al.): no significant evidence
- NOAEL ([1]; preclinical studies, ref Stanislaus et al.): 1000 mg/kg/day
- NTD-affected litters [2]: 5.8%
- mortality [3]: Significant mortality
- NTD prevalence ([4]; 4/426 infants exposed to DTG from conception, 2018): .94%
- prevalence of DTG-NTDs ([4]; follow-up study, 5/1683 deliveries, 2019): .30%
- increase in the prevalence of NTDs ([4]; women who began DTG prior to conception, 2018): 9 fold
- NTD-affected litters [5, 9]: 62%
- NTD-affected litters / litters examined [5, 9]: 8/13
- exencephalic embryos per litter [5, 9]: 1 to 5
- total NTDs ([5]; control Mg2+ (0.05%) casein diet, DTG500, of 116 implants): 19
- NTD-affected litters [5, 10]: 85%
- NTD-affected litters / litters examined [5, 10]: 11/13
- exencephalic embryos per litter [5, 10]: 1 to 6
- total NTDs ([5]; control Mg2+ (0.05%) casein diet, DTG750, of 105 implants): 33
- NTD-affected litters [5, 11]: 19%
- exencephalic embryos per affected litter [5, 11]: 1
- mean rate NTDs/litter [5, 11]: 2%
- NTD-affected litters / litters examined ([5]; high Mg2+ (0.3%) casein diet, DTG750, 90 implants total): 3/16
- Dev delay/implants, index value [5, 12]: 8.1% (17.76)
- NTDs/embryos, index value [5, 12]: 20.9% (23.65)^**
- NTDs/implants, index value [5, 12]: 17.7% (20.63)^**
- Resorptions/implants, index value [5, 12]: 11.5% (15.75)
- Implants per litter [5, 13]: 8.74 (2.47)
- Resorptions per litter [5, 13]: 0.95 (1.27)
- Dev. delayed [5, 14]: 0.58 (0.96)
- NTDs [5, 14]: 1.47 (1.74)^**
- Total viable embryos [5, 14]: 7.79 (2.76)
- NTDs observed ([5]; high Mg2+ soy diet, DTG 500 mg/kg/d (DTG500), n = 7 litters): No NTDs
- developmental delays [5, 15]: no developmental delays
- implants (total) [5, 15]: 71
- resorptions (total) [5, 15]: 9
- viable embryos developmentally normal (total) [5, 15]: 62
- NTD-affected litters / litters examined ([5]; high Mg2+ soy diet, DTG750): 12/19
- NTDs/affected litter ([5]; high Mg2+ soy diet, DTG750): 1–6
- total pups with exencephaly ([5]; high Mg2+ soy diet, DTG750, out of 166 total implants): 28
- FOLR1-mediated uptake of folic acid [6]: partially inhibited
- effect on hESC [7]: cytotoxicity and a dose-dependent loss of pluripotency
- growth and axial elongation [8]: concentration-dependent inhibition of growth and axial elongation
